Activity and viability data for 14 molecules are collected here from ChEMBL document CHEMBL5226393, “Semisynthesis of 22,25-Epoxylanostane Triterpenoids: Structure Revision and Protective Effects against Oxygen-Glucose Deprivation/Reoxygenation Injury in H9c2 Cells” (2023).

The test system of assay [1] is H9c2. The experiment in a line: Cardioprotective activity against OGD/R-induced cell injury in rat H9c2 cells assessed as increase in cell viability at 20 uM subjected to OGD condition for 6 hrs followed by compound treatment and measured after 6 hrs by MTT assay. The class given is functional, cell-based.
The test system of assay [2] is H9c2. The experiment in a line: Cardioprotective activity against OGD/R-induced cell injury in rat H9c2 cells assessed as increase in cell viability at 100 uM subjected to OGD condition for 6 hrs followed by compound treatment and measured after 6 hrs by MTT assay relative to control. The class given is functional. (Tetrazolium dyes change colour on reduction, which living cells bring about.)

The test system of assay [3] is H9c2. The assay is described as follows: Induction of apoptosis in OGD/R-induced rat H9c2 cells assessed as early apoptotic cells at 100 uM preincubated with compound followed by treatment under OGD condition by Annexin V-FITC staining based flow cytometric analysis (reference value: 0.97%). Format: functional. A general note: A flow cytometer gives signals particle by particle.

The test system of assay [4] is H9c2. The experiment in a line: Induction of apoptosis in OGD/R-induced rat H9c2 cells assessed as necrotic cells at 100 uM preincubated with compound followed by treatment under OGD condition by Annexin V-FITC staining based flow cytometric analysis (reference value: 1.01%). The class given is functional.
Assay [5] deals with H9c2. The assay is described as follows: Induction of apoptosis in OGD/R-induced rat H9c2 cells assessed as total apoptotic cells at 100 uM preincubated with compound for 24 hrs followed by treatment under OGD condition by Annexin V-FITC staining based flow cytometric analysis relative to control. The class given is functional.
The subject of assay [6] is H9c2. The experiment in a line: Induction of apoptosis in OGD/R-induced rat H9c2 cells assessed as viable cells at 100 uM preincubated with compound followed by treatment under OGD condition by Annexin V-FITC staining based flow cytometric analysis (reference value: 93.9%). Format: functional. The following applies: read-out: Activity.
The subject of assay [7] is H9c2. The assay is described as follows: Induction of apoptosis in OGD/R-induced rat H9c2 cells assessed as late apoptotic cells at 100 uM preincubated with compound followed by treatment under OGD condition by Annexin V-FITC staining based flow cytometric analysis (reference value: 4.14%). The class given is functional.
The test system of assay [8] is H9c2. The experiment in a line: Cardioprotective activity against OGD/R-induced cell injury in rat H9c2 cells assessed as increase in cell viability at 20 uM subjected to OGD condition for 6 hrs followed by compound treatment and measured after 6 hrs by MTT assay relative to control. The class given is functional.
Assay [9] concerns H9c2. The assay is described as follows: Induction of apoptosis in OGD/R-induced rat H9c2 cells assessed as early apoptotic cells at 5 uM preincubated with compound followed by treatment under OGD condition by Annexin V-FITC staining based flow cytometric analysis (reference value: 0.97%). Format: functional.
For assay [10], the system named is H9c2. The assay is described as follows: Induction of apoptosis in OGD/R-induced rat H9c2 cells assessed as viable cells at 5 uM preincubated with compound followed by treatment under OGD condition by Annexin V-FITC staining based flow cytometric analysis (reference value: 93.9%). The following applies: read-out: Activity. The class given is functional.
Assay [11] relates to H9c2. The assay is described as follows: Induction of apoptosis in OGD/R-induced rat H9c2 cells assessed as early apoptotic cells at 10 uM preincubated with compound followed by treatment under OGD condition by Annexin V-FITC staining based flow cytometric analysis (reference value: 0.97%). Format: functional.
Assay [12] deals with H9c2. The experiment in a line: Induction of apoptosis in OGD/R-induced rat H9c2 cells assessed as necrotic cells at 10 uM preincubated with compound followed by treatment under OGD condition by Annexin V-FITC staining based flow cytometric analysis (reference value: 1.01%). Format: functional.
The subject of assay [13] is H9c2. The assay is described as follows: Cardioprotective activity against OGD/R-induced cell injury in rat H9c2 cells assessed as increase in cell viability at 5 uM subjected to OGD condition for 6 hrs followed by compound treatment and measured after 6 hrs by MTT assay relative to control. Format: functional.
The subject of assay [14] is H9c2. The assay is described as follows: Induction of apoptosis in OGD/R-induced rat H9c2 cells assessed as late apoptotic cells at 5 uM preincubated with compound followed by treatment under OGD condition by Annexin V-FITC staining based flow cytometric analysis (reference value: 4.14%). The class given is functional.
Assay [15] concerns H9c2. The assay is described as follows: Induction of apoptosis in OGD/R-induced rat H9c2 cells assessed as viable cells at 10 uM preincubated with compound followed by treatment under OGD condition by Annexin V-FITC staining based flow cytometric analysis (reference value: 93.9%). The class given is functional. The following applies: read-out: Activity.
Assay [16] deals with H9c2. The assay is described as follows: Induction of apoptosis in OGD/R-induced rat H9c2 cells assessed as total apoptotic cells at 10 uM preincubated with compound for 24 hrs followed by treatment under OGD condition by Annexin V-FITC staining based flow cytometric analysis relative to control. Format: functional.
For assay [17], the system named is H9c2. The assay is described as follows: Induction of apoptosis in OGD/R-induced rat H9c2 cells assessed as late apoptotic cells at 10 uM preincubated with compound followed by treatment under OGD condition by Annexin V-FITC staining based flow cytometric analysis (reference value: 4.14%). The class given is functional.
Assay [18] concerns H9c2. The assay is described as follows: Induction of mitochondrial membrane potential loss in OGD/R-induced rat H9c2 cells assessed as increase in red to green fluorescence ratio by JC-1 staining based microscopic analysis relative to control. Format: functional.
In assay [19] the test system is H9c2. The assay is described as follows: Induction of apoptosis in OGD/R-induced rat H9c2 cells assessed as total apoptotic cells at 5 uM preincubated with compound for 24 hrs followed by treatment under OGD condition by Annexin V-FITC staining based flow cytometric analysis relative to control. Format: functional.
Assay [20] relates to H9c2. The experiment in a line: Induction of apoptosis in OGD/R-induced rat H9c2 cells assessed as necrotic cells at 5 uM preincubated with compound followed by treatment under OGD condition by Annexin V-FITC staining based flow cytometric analysis (reference value: 1.01%). The class given is functional.

The source made the active and inactive calls. No cut-off for these calls is given here.

Regarding `C[C@@H]([C@H]1CC[C@@]2(C)C3=C(CC[C@]12C)[C@@]1(C)CC[C@H](O)C(C)(C)[C@@H]1CC3)[C@H]1C[C@@H](O)C(C)(C)O1`, the result in the assay with H9c2 [1] was inactive.
As for `C[C@H]([C@@H]1C[C@@H](O)C(C)(C)O1)[C@H]1CC[C@@]2(C)C3=CC[C@H]4C(C)(C)[C@@H](O)CC[C@]4(C)C3=CC[C@]12C`, in the assay with H9c2 [1], the outcome was inactive.
On to `CC1=Nc2ccc(Cl)cc2S(=O)(=O)N1` [DIAZOXIDE], for which the Activity was 14.9% with H9c2 [2]; 5.41% in the assay on H9c2 [3]; 0.58% in the assay with H9c2 [4]; 17.3% with H9c2 [5]; 12.7% in the assay with H9c2 [7]. Further, the viability at 100 µM in the assay on H9c2 [6] is 81.3%.
In the case of `C[C@H]([C@@H]1CCC(C)(C)O1)[C@H]1CC[C@@]2(C)C3=CC[C@H]4C(C)(C)[C@@H](O)CC[C@]4(C)C3=CC[C@]12C`, the Activity with H9c2 [8] was found to be 10.6%.
For the molecule `C[C@@H]([C@H]1CC[C@@]2(C)C3=C(CC[C@]12C)[C@@]1(C)CC[C@H](O)C(C)(C)[C@@H]1CC3)[C@H]1CCC(C)(C)O1`, the Activity is 2.55% with H9c2 [9]; 5.12% in the assay with H9c2 [11]; 0.035% in the assay on H9c2 [12]; 11.4% with H9c2 [13]; 13.3% with H9c2 [14]; 14.5% in the assay with H9c2 [16]. Also, the Activity was 8.97% with H9c2 [17]; 90% with H9c2 [18]; 17.4% in the assay with H9c2 [19]; 0.52% with H9c2 [20]; 18.7% in the assay with H9c2 [8]. In the assay on H9c2 [10], the viability at 5 µM is 83.7%. The viability at 10 µM with H9c2 [15] was determined as 85.9%.
For the molecule `C[C@H]([C@@H]1C[C@H](O)C(C)(C)O1)[C@H]1CC[C@@]2(C)C3=CC[C@H]4C(C)(C)[C@@H](O)CC[C@]4(C)C3=CC[C@]12C`, the outcome in the assay with H9c2 [1] was inactive.
`C[C@H]([C@@H]1CCC(C)(C)O1)[C@H]1CC[C@@]2(C)C3=C(CC[C@]12C)[C@@]1(C)CC[C@H](O)C(C)(C)[C@@H]1CC3`: the Activity in the assay on H9c2 [8] is recorded as 10.8%.
On to `C[C@H]([C@@H]1C[C@H](O)C(C)(C)O1)[C@H]1CC[C@@]2(C)C3=C(CC[C@]12C)[C@@]1(C)CC[C@H](O)C(C)(C)[C@@H]1CC3`, for which, in the assay on H9c2 [1], the result was inactive.
Still for that read-out and setting: under `C[C@@H]([C@H]1CC[C@@]2(C)C3=CC[C@H]4C(C)(C)[C@@H](O)CC[C@]4(C)C3=CC[C@]12C)[C@H]1C[C@H](O)C(C)(C)O1` stands “inactive”.
With `C=C(C)[C@@H]1CC=C2C(=CC[C@]3(C)[C@@H]([C@H](C)[C@H]4CCC(C)(C)O4)CC[C@@]23C)[C@@]1(C)CCC(=O)O`, the Activity in the assay with H9c2 [13] is recorded as 6.4%; in the assay with H9c2 [8] it was 17.7%.
As for `C[C@@H]([C@H]1CC[C@@]2(C)C3=CC[C@H]4C(C)(C)[C@@H](O)CC[C@]4(C)C3=CC[C@]12C)[C@H]1CCC(C)(C)O1`, the Activity in the assay on H9c2 [8] is given as 11.4%.
On to `C[C@@H]([C@H]1CC[C@@]2(C)C3=CC[C@H]4C(C)(C)[C@@H](O)CC[C@]4(C)C3=CC[C@]12C)[C@H]1C[C@@H](O)C(C)(C)O1`, for which, in the assay with H9c2 [1], the result was inactive.
Consider `C[C@@H]([C@H]1CC[C@@]2(C)C3=C(CC[C@]12C)[C@@]1(C)CC[C@H](O)C(C)(C)[C@@H]1CC3)[C@H]1C[C@H](O)C(C)(C)O1`, for which the outcome in the assay with H9c2 [1] was inactive.
Still for that read-out and setting: under `C[C@H]([C@@H]1C[C@@H](O)C(C)(C)O1)[C@H]1CC[C@@]2(C)C3=C(CC[C@]12C)[C@@]1(C)CC[C@H](O)C(C)(C)[C@@H]1CC3` stands “inactive”.
